Data taken from ChEMBL document CHEMBL1201862, “PubChem BioAssay data set” (2004).
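In this assay, cells in 96-well plates receive the compound at five concentrations for 48 hours. Endpoints are linearly interpolated between the surrounding concentrations. GI50 is the concentration that inhibits growth by half.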 Calls of active or inactive are those of the source. No stated cut-off is given here; in the data, active = GI50 up to about 1.1 µM and inactive = higher.

Legend:
Experiment in all cases: NCI anticancer screen, dose series, 48 h
[1] = system: SK-MEL-2
[2] = system: Hs-578T
[3] = system: SN12C
[4] = system: KM12
[5] = system: OVCAR-8
[6] = system: HCT-116
[7] = system: CAKI-1
[8] = system: SR
[9] = system: BT-549
[10] = system: K562
[11] = system: NCI/ADR-RES
[12] = system: SF-539
[13] = system: A549
[14] = system: MOLT-4
[15] = system: OVCAR-3
[16] = system: SNB-19
[17] = system: MDA-MB-435
[18] = system: NCI-H460
[19] = system: NCI-H522
[20] = system: SW-620
[21] = system: HT-29
[22] = system: SF-268
[23] = system: MDA-N
[24] = system: HL-60
[25] = system: SNB-75
[26] = system: TK-10
[27] = system: HCC 2998
[28] = system: RXF 393
[29] = system: NCI-H226
[30] = system: UO-31
[31] = system: ACHN
[32] = system: SF-295
[33] = system: HOP-92
[34] = system: MDA-MB-231
[35] = system: RPMI-8226
[36] = system: OVCAR-5
[37] = system: CCRF-CEM
[38] = system: SK-OV-3
[39] = system: LOX IMVI
[40] = system: 786-0
[41] = system: HCT-15
[42] = system: UACC-257
[43] = system: SK-MEL-5
[44] = system: COLO 205
[45] = system: A498
[46] = system: OVCAR-4
[47] = system: EKVX
[48] = system: PC-3
[49] = system: U-251
[50] = system: UACC-62
[51] = system: IGROV-1
[52] = system: M14
[53] = system: DU-145
[54] = system: SK-MEL-28
[55] = system: MCF7
[56] = system: T47D
[57] = system: NCI-H23
[58] = system: Malme-3M
[59] = system: HOP-62

COc1cc2c(NCCCCCO)ncnc2c(OC)c1OC
GI50 [1]: > 100 µM (inactive)
GI50 [2]: > 100 µM (inactive)
GI50 [3]: > 100 µM (inactive)
GI50 [4]: > 100 µM (inactive)
GI50 [5]: > 100 µM (inactive)
GI50 [6]: > 100 µM (inactive)
GI50 [7]: > 100 µM (inactive)
GI50 [8]: > 87.9 µM (inactive)
GI50 [9]: > 100 µM (inactive)
GI50 [10]: > 100 µM (inactive)
GI50 [11]: > 100 µM (inactive)
GI50 [12]: > 100 µM (inactive)
GI50 [13]: > 100 µM (inactive)
GI50 [14]: > 100 µM (inactive)
GI50 [15]: > 100 µM (inactive)
GI50 [16]: > 100 µM (inactive)
GI50 [17]: > 100 µM (inactive)
GI50 [18]: > 100 µM (inactive)
GI50 [19]: > 100 µM (inactive)
GI50 [20]: > 100 µM (inactive)
GI50 [21]: > 100 µM (inactive)
GI50 [22]: > 100 µM (inactive)
GI50 [23]: > 100 µM (inactive)
GI50 [24]: > 100 µM (inactive)
GI50 [25]: > 100 µM (inactive)
GI50 [26]: > 100 µM (inactive)
GI50 [27]: > 100 µM (inactive)
GI50 [28]: > 100 µM (inactive)
GI50 [29]: 43.9 µM (inactive)
GI50 [30]: > 85.9 µM (inactive)
GI50 [31]: > 100 µM (inactive)
GI50 [32]: > 100 µM (inactive)
GI50 [33]: 43.8 µM (inactive)
GI50 [34]: 95.5 µM (inactive)
GI50 [35]: > 93.1 µM (inactive)
GI50 [36]: > 100 µM (inactive)
GI50 [37]: > 93.3 µM (inactive)
GI50 [38]: > 100 µM (inactive)
GI50 [39]: > 100 µM (inactive)
GI50 [40]: > 100 µM (inactive)
GI50 [41]: > 100 µM
GI50 [42]: > 100 µM (inactive)
GI50 [43]: > 84.7 µM (inactive)
GI50 [44]: > 100 µM (inactive)
GI50 [45]: > 100 µM (inactive)
GI50 [46]: > 100 µM (inactive)
GI50 [47]: > 100 µM (inactive)
GI50 [48]: > 100 µM (inactive)
GI50 [49]: > 100 µM (inactive)
GI50 [50]: > 100 µM (inactive)
GI50 [51]: > 100 µM (inactive)
GI50 [52]: > 100 µM (inactive)
GI50 [53]: > 100 µM (inactive)
GI50 [54]: > 100 µM (inactive)
GI50 [55]: > 100 µM (inactive)
GI50 [56]: > 96.2 µM (inactive)
GI50 [57]: > 100 µM (inactive)
GI50 [58]: > 63 µM (inactive)
GI50 [59]: > 100 µM (inactive)

Cc1cc(N)c2ccccc2[n+]1CCCCCCCCCC[n+]1c(C)cc(N)c2ccccc21 [DEQUALINIUM CHLORIDE]
GI50 [1]: 1.89 µM (inactive)
GI50 [2]: 1.96 µM (inactive)
GI50 [3]: 1.45 µM (inactive)
GI50 [4]: 0.69 µM (active)
GI50 [5]: 1.9 µM (inactive)
GI50 [6]: 1.31 µM (inactive)
GI50 [7]: 7.06 µM (inactive)
GI50 [8]: 0.472 µM (active)
GI50 [9]: 1 µM (active)
GI50 [10]: 0.379 µM (active)
GI50 [11]: 10.5 µM (inactive)
GI50 [12]: 1.83 µM (inactive)
GI50 [13]: 0.887 µM (active)
GI50 [14]: 0.964 µM (active)
GI50 [15]: 2.27 µM (inactive)
GI50 [16]: 0.783 µM (active)
GI50 [17]: 0.541 µM (active)
GI50 [18]: 0.54 µM (active)
GI50 [19]: 0.752 µM (active)
GI50 [20]: 2.22 µM (inactive)
GI50 [21]: 1 µM (active)
GI50 [22]: 1.39 µM (inactive)
GI50 [23]: 1.33 µM (inactive)
GI50 [24]: 0.533 µM (active)
GI50 [25]: 0.986 µM (active)
GI50 [26]: 4.09 µM (inactive)
GI50 [27]: 0.904 µM (active)
GI50 [28]: 10.4 µM (inactive)
GI50 [29]: 3.37 µM (inactive)
GI50 [30]: 4.43 µM (inactive)
GI50 [31]: 1.11 µM (active)
GI50 [32]: 1.28 µM (inactive)
GI50 [33]: 3.62 µM (inactive)
GI50 [34]: 1.82 µM (inactive)
GI50 [35]: 0.375 µM (active)
GI50 [36]: 2.34 µM (inactive)
GI50 [37]: 2.11 µM (inactive)
GI50 [38]: 2.39 µM (inactive)
GI50 [39]: 1.11 µM (active)
GI50 [40]: 2.69 µM (inactive)
GI50 [41]: 4.31 µM
GI50 [42]: 2.91 µM (inactive)
GI50 [43]: 0.528 µM (active)
GI50 [44]: 1.33 µM (inactive)
GI50 [45]: 5.19 µM (inactive)
GI50 [46]: 2.43 µM (inactive)
GI50 [47]: 1.82 µM (inactive)
GI50 [48]: 1.07 µM (active)
GI50 [49]: 0.258 µM (active)
GI50 [50]: 1.82 µM (inactive)
GI50 [51]: 1.72 µM (inactive)
GI50 [52]: 2.59 µM (inactive)
GI50 [53]: 2.74 µM (inactive)
GI50 [54]: 0.879 µM (active)
GI50 [55]: 0.423 µM (active)
GI50 [56]: 0.948 µM (active)
GI50 [57]: 0.41 µM (active)
GI50 [58]: 3.05 µM (inactive)
GI50 [59]: 1.87 µM (inactive)
